Measurements taken from patent US10526316B2, “Quinoxaline and pyridopyrazine derivatives as PI3Kβ inhibitors” (Janssen Pharmaceutica NV, priority 2015, dated 2020).
pIC50, pKd: −log10 of the molar value. Like-named read-outs stand apart in the source and are kept apart here.

Tests used:
[1] = target: T1, PI3Kβ (Homo sapiens, UniProt P42338); assay: Enzyme binding assay (KINOMEscan, DiscoveRx); conditions: PIK3Cβ_h, read-out: Kd PIK3Cβ_h
T1 construct: purchased DiscoveRx Corporation, San Diego (contract service, KINOMEscan)
T1 sequence (P42338 whole entry): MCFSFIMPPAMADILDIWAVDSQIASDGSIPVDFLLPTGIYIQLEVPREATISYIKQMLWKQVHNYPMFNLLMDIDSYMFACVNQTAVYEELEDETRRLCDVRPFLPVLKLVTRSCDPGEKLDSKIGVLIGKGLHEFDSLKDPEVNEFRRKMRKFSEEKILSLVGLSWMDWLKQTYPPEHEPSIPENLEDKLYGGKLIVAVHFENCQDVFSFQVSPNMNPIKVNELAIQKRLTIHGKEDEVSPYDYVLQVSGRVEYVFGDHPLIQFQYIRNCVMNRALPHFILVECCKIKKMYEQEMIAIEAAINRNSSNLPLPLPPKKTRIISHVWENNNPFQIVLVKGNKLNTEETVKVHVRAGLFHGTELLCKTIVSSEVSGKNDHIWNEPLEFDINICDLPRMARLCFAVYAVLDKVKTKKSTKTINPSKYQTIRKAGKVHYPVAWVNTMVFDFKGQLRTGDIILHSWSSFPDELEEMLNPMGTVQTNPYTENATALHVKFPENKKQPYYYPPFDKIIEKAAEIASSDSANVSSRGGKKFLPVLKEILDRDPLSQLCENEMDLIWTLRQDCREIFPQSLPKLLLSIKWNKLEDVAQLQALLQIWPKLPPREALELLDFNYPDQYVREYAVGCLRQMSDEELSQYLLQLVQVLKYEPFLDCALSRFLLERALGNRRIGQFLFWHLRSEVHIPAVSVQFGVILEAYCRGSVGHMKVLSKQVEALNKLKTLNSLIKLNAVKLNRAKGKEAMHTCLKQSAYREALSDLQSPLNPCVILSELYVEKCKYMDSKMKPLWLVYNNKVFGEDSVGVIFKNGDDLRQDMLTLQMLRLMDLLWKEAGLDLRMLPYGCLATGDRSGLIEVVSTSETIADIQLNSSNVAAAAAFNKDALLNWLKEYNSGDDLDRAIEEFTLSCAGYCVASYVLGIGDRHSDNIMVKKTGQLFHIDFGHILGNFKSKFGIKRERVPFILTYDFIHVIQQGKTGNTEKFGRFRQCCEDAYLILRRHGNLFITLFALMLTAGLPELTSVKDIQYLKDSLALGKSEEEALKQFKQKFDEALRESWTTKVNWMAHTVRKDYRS
Outline: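 Reported Kd (nM) reflects inhibitor binding to the kinase, as measured by KINOMEscan technology.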

[2] = test system: Akt phosphorylated at Thr308 in PC-3 cells; assay: Cellular assay: phosphorylation of Akt at Thr308 in PC-3 cells (MSD ELISA); type: cell-based; conditions: PC-3 cells, 60 min compound incubation, MSD ELISA, read-out: IC50 pAkt_Thr308
Outline: (§1)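 Phospho-Akt in whole-cell lysates is quantified by electrochemiluminescent immunoassay using phospho-site capture and total-Akt detection antibodies.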

[3] = test system: Akt phosphorylated at Ser473 in PC-3 cells; assay: Cellular assay: phosphorylation of Akt at Ser473 in PC-3 cells (MSD ELISA); type: cell-based; conditions: PC-3 cells, 60 min compound incubation, MSD ELISA, read-out: IC50 pAkt_S473
Outline: as §1

[4] = target: T2, kinase enzymes (Homo sapiens, UniProt P42336); assay: Enzyme binding assay (KINOMEscan, DiscoveRx), further kinases of Table A; conditions: PIK3Cα_h
T2 construct: purchased DiscoveRx Corporation, San Diego (contract service, KINOMEscan)
T2 sequence (P42336 whole entry): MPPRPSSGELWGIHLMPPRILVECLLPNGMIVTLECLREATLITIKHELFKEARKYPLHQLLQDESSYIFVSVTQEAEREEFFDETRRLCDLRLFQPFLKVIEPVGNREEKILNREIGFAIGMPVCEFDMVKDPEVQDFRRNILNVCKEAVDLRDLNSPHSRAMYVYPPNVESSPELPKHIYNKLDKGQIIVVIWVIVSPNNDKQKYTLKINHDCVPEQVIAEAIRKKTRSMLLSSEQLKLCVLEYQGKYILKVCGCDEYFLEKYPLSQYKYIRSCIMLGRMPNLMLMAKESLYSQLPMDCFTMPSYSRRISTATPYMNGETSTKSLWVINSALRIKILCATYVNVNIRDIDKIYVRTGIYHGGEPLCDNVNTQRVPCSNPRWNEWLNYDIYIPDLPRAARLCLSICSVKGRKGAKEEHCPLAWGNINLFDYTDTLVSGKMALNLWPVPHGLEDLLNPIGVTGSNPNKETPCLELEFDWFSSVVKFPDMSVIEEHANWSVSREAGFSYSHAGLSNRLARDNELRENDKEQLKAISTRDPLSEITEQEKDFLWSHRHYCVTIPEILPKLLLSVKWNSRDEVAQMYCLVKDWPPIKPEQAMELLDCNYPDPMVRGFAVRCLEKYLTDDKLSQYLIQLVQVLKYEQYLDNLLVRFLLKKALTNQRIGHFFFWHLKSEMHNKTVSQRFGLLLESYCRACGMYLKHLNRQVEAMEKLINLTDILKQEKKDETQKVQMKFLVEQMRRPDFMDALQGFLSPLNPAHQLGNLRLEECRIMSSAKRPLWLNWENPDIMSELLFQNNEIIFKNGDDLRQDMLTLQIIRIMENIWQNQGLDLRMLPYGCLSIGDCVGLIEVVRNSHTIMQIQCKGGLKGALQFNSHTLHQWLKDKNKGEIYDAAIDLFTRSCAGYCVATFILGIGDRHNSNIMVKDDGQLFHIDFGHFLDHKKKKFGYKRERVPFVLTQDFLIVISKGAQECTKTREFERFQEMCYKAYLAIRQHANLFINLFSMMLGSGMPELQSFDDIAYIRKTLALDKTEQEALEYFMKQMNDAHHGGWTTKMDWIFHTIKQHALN
Outline: (§2)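 Kinase binding measured via KINOMEscan, reported as affinity.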

[5] = target: T3, kinase enzymes (Homo sapiens, UniProt P42345); assay: as above; conditions: MTOR_h
T3 construct: purchased DiscoveRx Corporation, San Diego (contract service, KINOMEscan)
Outline: as §2

[6] = target: T4, kinase enzymes (Homo sapiens, UniProt P48736); assay: as above; conditions: PIK3Cγ_h
T4 construct: purchased DiscoveRx Corporation, San Diego (contract service, KINOMEscan)
T4 sequence (P48736 whole entry): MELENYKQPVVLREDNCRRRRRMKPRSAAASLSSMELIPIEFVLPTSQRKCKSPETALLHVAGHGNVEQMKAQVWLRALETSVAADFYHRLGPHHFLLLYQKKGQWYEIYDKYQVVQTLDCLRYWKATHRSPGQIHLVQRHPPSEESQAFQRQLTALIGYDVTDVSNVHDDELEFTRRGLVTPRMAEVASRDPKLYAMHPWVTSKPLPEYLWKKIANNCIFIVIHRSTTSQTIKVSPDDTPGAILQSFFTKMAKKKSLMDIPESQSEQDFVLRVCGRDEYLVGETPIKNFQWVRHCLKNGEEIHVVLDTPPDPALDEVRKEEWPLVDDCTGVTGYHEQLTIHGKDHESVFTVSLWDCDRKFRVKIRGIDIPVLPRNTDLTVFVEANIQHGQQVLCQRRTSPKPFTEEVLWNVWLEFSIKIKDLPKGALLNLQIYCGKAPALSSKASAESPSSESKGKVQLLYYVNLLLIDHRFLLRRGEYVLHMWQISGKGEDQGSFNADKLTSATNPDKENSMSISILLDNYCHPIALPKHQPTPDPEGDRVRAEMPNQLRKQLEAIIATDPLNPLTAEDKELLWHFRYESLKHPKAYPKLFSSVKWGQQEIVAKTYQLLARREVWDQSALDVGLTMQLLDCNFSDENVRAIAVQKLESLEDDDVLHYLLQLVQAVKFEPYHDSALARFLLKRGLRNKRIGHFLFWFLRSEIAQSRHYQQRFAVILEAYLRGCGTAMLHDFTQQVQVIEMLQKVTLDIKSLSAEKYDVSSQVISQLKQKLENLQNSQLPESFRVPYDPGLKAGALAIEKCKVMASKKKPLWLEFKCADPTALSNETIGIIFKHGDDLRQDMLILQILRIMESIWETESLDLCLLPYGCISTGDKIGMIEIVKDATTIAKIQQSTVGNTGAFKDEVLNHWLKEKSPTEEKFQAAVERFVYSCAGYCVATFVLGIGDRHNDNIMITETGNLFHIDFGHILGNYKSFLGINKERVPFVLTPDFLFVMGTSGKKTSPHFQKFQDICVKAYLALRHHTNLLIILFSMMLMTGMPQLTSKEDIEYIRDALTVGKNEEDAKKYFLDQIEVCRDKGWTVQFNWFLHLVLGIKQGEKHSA
Outline: as §2

[7] = target: T5, PI3Kδ (Homo sapiens, UniProt O00329); assay: Enzyme binding assay (KINOMEscan, DiscoveRx); conditions: PIK3Cδ_h
T5 construct: purchased DiscoveRx Corporation, San Diego (contract service, KINOMEscan)
T5 sequence (O00329 1-1044): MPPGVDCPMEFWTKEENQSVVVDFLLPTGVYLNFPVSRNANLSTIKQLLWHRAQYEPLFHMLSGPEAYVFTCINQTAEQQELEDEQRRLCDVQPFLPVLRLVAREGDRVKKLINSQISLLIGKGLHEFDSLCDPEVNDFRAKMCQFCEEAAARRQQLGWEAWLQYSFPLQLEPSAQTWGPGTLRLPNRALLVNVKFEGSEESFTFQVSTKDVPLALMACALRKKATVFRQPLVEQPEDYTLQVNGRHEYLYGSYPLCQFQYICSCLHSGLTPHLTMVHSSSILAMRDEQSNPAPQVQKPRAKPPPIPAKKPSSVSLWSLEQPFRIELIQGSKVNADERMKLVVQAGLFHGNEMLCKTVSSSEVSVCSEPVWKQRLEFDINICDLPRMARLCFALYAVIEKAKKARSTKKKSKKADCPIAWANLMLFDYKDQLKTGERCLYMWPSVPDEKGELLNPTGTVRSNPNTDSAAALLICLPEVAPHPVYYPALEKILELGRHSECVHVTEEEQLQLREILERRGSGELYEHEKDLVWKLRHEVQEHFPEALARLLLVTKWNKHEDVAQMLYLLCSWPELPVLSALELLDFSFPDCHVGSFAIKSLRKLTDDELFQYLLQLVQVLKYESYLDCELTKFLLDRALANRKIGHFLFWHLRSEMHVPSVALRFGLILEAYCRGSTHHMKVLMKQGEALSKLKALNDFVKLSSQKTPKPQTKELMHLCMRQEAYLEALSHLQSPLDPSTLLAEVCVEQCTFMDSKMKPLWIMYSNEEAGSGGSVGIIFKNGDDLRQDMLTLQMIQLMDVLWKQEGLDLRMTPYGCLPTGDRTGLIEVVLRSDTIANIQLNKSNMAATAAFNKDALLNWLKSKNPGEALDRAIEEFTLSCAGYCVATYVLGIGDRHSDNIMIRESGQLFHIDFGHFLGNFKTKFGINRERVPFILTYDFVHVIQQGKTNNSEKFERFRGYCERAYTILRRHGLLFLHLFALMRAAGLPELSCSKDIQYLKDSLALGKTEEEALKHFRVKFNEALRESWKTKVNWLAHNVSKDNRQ
Outline: as §2

| Structure (SMILES) | pKd [1] | pIC50 [2] | pIC50 [3] | pKd [4] | pKd [5] | pKd [6] | pKd [7] | melting point | pIC50 ([2]; Homo sapiens, PC-3, 1 h) | pIC50 ([3]; Homo sapiens, PC-3, 1 h) |
| --- | --- | --- | --- | --- | --- | --- | --- | --- | --- | --- |
| CC(Nc1ccc(F)c(F)c1)c1cc(C(=O)NC[C@@H](C)O)cc2ncc(N3CCOCC3)nc12 (single isomer, unassigned) [Compound 346b] | 6.13 | < 6.29 | < 6.29 | 4.63 | < 4.52 | 5.56 | 4.68 | 106 °C |  |  |
| CC(Nc1ccc(F)c(F)c1)c1cc(C(=O)N2CCN3CCC[C@@H]3C2)cc2ncc(N3CCOCC3)nc12 (single isomer, unassigned) [Compound 347a] | 5.57 |  |  | < 4.52 | < 4.52 | < 4.52 | < 4.52 | 125 °C | < 6.29 | < 6.29 |
| CC(Nc1ccc(F)c(F)c1)c1cc(C(=O)NCC(C)(C)O)cc2ncc(N3CCOCC3)nc12 (single isomer, unassigned) [Compound 348a] | 8.00 | 6.86 |  | 5.52 | < 4.52 | 4.53 | 6.04 | 102 °C |  | 6.54 |
| CC(Nc1ccc(F)c(F)c1)c1cc(C(=O)N(C)CCN(C)C)cc2ncc(N3CCOCC3)nc12 (single isomer, unassigned) [Compound 349a] | 9.70 | 8.70 | 8.40 | 6.09 | < 4.52 | 5.37 | 7.44 | 82 °C |  |  |
| CC(Nc1ccc(F)c(F)c1)c1cc(C(=O)N2C[C@@H](C)N[C@@H](C)C2)cc2ncc(N3CCOCC3)nc12 (single isomer, unassigned) [Compound 357a] | 5.48 |  |  | 4.64 | < 4.52 | < 4.52 | 4.79 | 116 °C | < 6.29 | < 6.29 |
| CC(Oc1ccc(F)c(F)c1)c1cc(C(=O)N2CC[C@H](N(C)C)C2)cc2ncc(N3CCOCC3)nc12 (single isomer, unassigned) [Compound 363a] | 8.00 |  |  | 4.96 | < 4.52 | 4.57 | 6.38 | 80 °C | 7.13 | ~6.90 |
| CC(Oc1ccc(F)c(F)c1)c1cc(C(=O)N2CCN3CCC[C@H]3C2)cc2ncc(N3CCOCC3)nc12 (single isomer, unassigned) [Compound 369b] | 5.48 | < 6.29 | < 6.29 | < 4.52 | < 4.52 | < 4.52 | 4.54 | 147 °C |  |  |
| CN[C@H]1CCN(C(=O)c2cc(C(C)Oc3ccc(F)c(F)c3)c3nc(N4CCOCC4)cnc3c2)C1 (single isomer, unassigned) [Compound 370a] | 9.52 | 7.40 | 6.97 | 5.91 | < 4.52 | 5.58 | 6.97 | 128 °C |  |  |
| CN[C@H]1CCN(C(=O)c2cc(C(C)Oc3ccc(F)c(F)c3)c3nc(N4CCOCC4)cnc3c2)C1 (single isomer, unassigned) [Compound 370b] | 6.26 | < 6.29 | < 6.29 | < 4.52 | < 4.52 | < 4.52 | 4.81 | 80 °C |  |  |
| CN[C@@H]1CCN(C(=O)c2cc(C(C)Nc3ccc(F)c(F)c3)c3nc(N4CCOCC4)cnc3c2)C1 (single isomer, unassigned) [Compound 371a] | 9.52 | 8.70 | 8.00 | 5.82 | < 4.52 | 5.98 | 7.08 | 114 °C |  |  |
| CN[C@@H]1CCN(C(=O)c2cc(C(C)Nc3ccc(F)c(F)c3)c3nc(N4CCOCC4)cnc3c2)C1 (single isomer, unassigned) [Compound 371b] | 7.70 | 6.60 | < 6.29 | 4.90 | < 4.52 | 4.96 | 5.30 | 107 °C |  |  |
| CC(Nc1ccc(F)c(F)c1)c1cc(C(=O)N[C@H]2CCNC2)cc2ncc(N3CCOCC3)nc12 (single isomer, unassigned) [Compound 374a] | 9.52 | 7.77 | 7.49 | 5.61 | < 4.52 | 5.23 | 6.85 | 132 °C |  |  |
| CC(Nc1ccc(F)c(F)c1)c1cc(C(=O)N[C@H]2CCNC2)cc2ncc(N3CCOCC3)nc12 (single isomer, unassigned) [Compound 374b] | 7.01 | < 6.29 | < 6.29 | 4.87 | < 4.52 | 4.66 | 5.24 | 130 °C |  |  |
| CC(Nc1cccc(F)c1)c1cc(C(=O)NCC(=O)O)cc2ncc(N3CCOCC3)nc12 (single isomer, unassigned) [Compound 393a] | 7.96 |  |  | 6.36 | 5.17 | 5.86 | 5.91 | 115 °C | < 6.29 | < 6.29 |
| CC(Nc1cccc(F)c1)c1cc(C(=O)NCC(=O)O)cc2ncc(N3CCOCC3)nc12 (single isomer, unassigned) [Compound 393b] | 5.64 | < 6.29 | < 6.29 | 4.96 | 4.80 | 5.18 | 4.59 | 196 °C |  |  |
